# Measured values published in US5482943A, “(6-fluoro-1,2-benzisoxazol-3-yl)-1-piperidinyl-alkyl-(2, 9-disubstituted-4H-pyrido[1,2-a]pyrimidin-4-one) derivatives” (Janssen Pharmaceutica N.V., priority 1990, dated 1996).
# Experiments:
# dopamine [1] = assay: Amphetamine antagonism in rats (agitation and oxygen hyperconsumption); format: in vivo; conditions: Rattus norvegicus, 0.75 h, compound sc, after 45 min amphetamine 2.5 mg/kg sc
# Method: Amphetamine Antagonism in Rats
# This test procedure is described in Industrial Pharmacology, Part II, Antidepressants, eds, S. Fielding and H. Lal, p. 125-141, Futura Publishing Company (1975). Solvent (controls) or the test compound (1) were injected sc, followed after 45 min by amphetamine (2.5 mg/kg, sc). Starting 15 min after the amphetamine injection, agitation and consumption of oxygen were evaluated every 15 min over a period of 1 hour. Agitation was scored 3 (pronounced), 2 (moderate), 1 (slight) and 0 (absent), the total score maximally being 4×3=12. Oxygen consumption was measured on a mercury manometer simultaneously. Significant inhibition required a total score for agitation of less than 11 (0.3% in controls) or a final scale reading for oxygen consumption of less than 105 Hg units (1.8% in controls; mean=118 units). Blockade of amphetamine-induced agitation was considered complete at a total score of less than 4 and that of oxygen consumption at a scale reading of less than 90 Hg units (i.e. the agitation score and oxygen consumption level of normal rats which is never observed in amphetamine-treated controls). Listed are the ED50 values (mg/kg) obtained with compound (1) and the subsequent amphetamine challenge.
# dopamine [2] = assay: Apomorphine antagonism in dogs (absence of apomorphine-induced emesis); format: in vivo, dog; conditions: Canis lupus familiaris
# Method: Apomorphine Antagonism in Dogs
# This test is described in Psychopharmacol. 78, 210-213 (1982) and provides--besides a measure of the potency--a good measure of the duration of action of the tested compounds as dopamine antagonists. Apomorphine (0.31 mg/kg, sc; 4 times the ED95) induced emesis in all control dogs. At different time intervals before the apomorphine challenge, the dogs were pretreated with different doses (iv, sc or po) of the test compound (1). Complete absence of emesis for 1 hour after the challenge was adopted as the criterion for apomorphine antagonism in dogs. Listed are the ED50 values (mg/kg) obtained with compound (1) at different intervals after iv, sc or po administration.
# dopamine [3] = assay: Apomorphine antagonism in rats (inhibition of apomorphine-induced agitation and stereotypy); format: in vivo; conditions: Rattus norvegicus, read-out: ED50 for inhibition of apomorphine-induced symptoms
# Excerpt: Apomorphine Antagonism in Rats
# The test procedure is described in Arch. Int. Pharmacodyn. […] In Table 1 are listed the ED50 values (mg/kg) for inhibition of apomorphine-induced symptoms obtained with compound (1) and the subsequent apomorphine challenge at different intervals (time).
smiles,measurement,setting,value
"Cc1nc2c(C)cccn2c(=O)c1CCN1CCC(c2noc3cc(F)ccc23)CC1 [Compound 1, 3-[2-[4-(6-fluoro-1,2-benzisoxazol-3-yl)-1-piperidinyl]ethyl]-2,9-dimethyl-4H-pyrido[1,2-a]-pyrimidin-4-one]",ED50,"dopamine [1]; blockade: agitation score <4, read-out: ED50, blockade of amphetamine-induced agitation",0.064 mg/kg
same,ED50,"dopamine [1]; blockade: scale reading <90 Hg units, read-out: ED50, blockade of oxygen hyperconsumption",0.19 mg/kg
same,ED50,"dopamine [1]; inhibition: agitation score <11, read-out: ED50, inhibition of amphetamine-induced agitation",0.014 mg/kg
same,ED50,"dopamine [1]; inhibition: scale reading <105 Hg units, read-out: ED50, inhibition of oxygen hyperconsumption",0.057 mg/kg
same,ED50,"dopamine [2]; iv, 0.5 h before apomorphine 0.31 mg/kg sc, read-out: ED50 (iv)",1.2 µg/kg
same,ED50,"dopamine [2]; iv, 1 h before apomorphine 0.31 mg/kg sc, read-out: ED50 (iv)",1.1 µg/kg
same,ED50,"dopamine [2]; iv, 2 h before apomorphine 0.31 mg/kg sc, read-out: ED50 (iv)",1.2 µg/kg
same,ED50,"dopamine [2]; iv, 4 h before apomorphine 0.31 mg/kg sc, read-out: ED50 (iv)",0.79 µg/kg
same,ED50,"dopamine [2]; iv, 8 h before apomorphine 0.31 mg/kg sc, read-out: ED50 (iv)",0.89 µg/kg
same,ED50,"dopamine [2]; iv, 16 h before apomorphine 0.31 mg/kg sc, read-out: ED50 (iv)",1.2 µg/kg
same,ED50,"dopamine [2]; iv, 32 h before apomorphine 0.31 mg/kg sc, read-out: ED50 (iv)",2.9 µg/kg
same,ED50,"dopamine [2]; po, 0.5 h before apomorphine 0.31 mg/kg sc, read-out: ED50 (po)",5 µg/kg
same,ED50,"dopamine [2]; po, 1 h before apomorphine 0.31 mg/kg sc, read-out: ED50 (po)",1.5 µg/kg
same,ED50,"dopamine [2]; po, 2 h before apomorphine 0.31 mg/kg sc, read-out: ED50 (po)",0.89 µg/kg
same,ED50,"dopamine [2]; po, 4 h before apomorphine 0.31 mg/kg sc, read-out: ED50 (po)",1.2 µg/kg
same,ED50,"dopamine [2]; po, 8 h before apomorphine 0.31 mg/kg sc, read-out: ED50 (po)",0.99 µg/kg
same,ED50,"dopamine [2]; po, 16 h before apomorphine 0.31 mg/kg sc, read-out: ED50 (po)",2.4 µg/kg
same,ED50,"dopamine [2]; po, 32 h before apomorphine 0.31 mg/kg sc, read-out: ED50 (po)",6.3 µg/kg
same,ED50,"dopamine [2]; sc, 0.5 h before apomorphine 0.31 mg/kg sc, read-out: ED50 (sc)",4.5 µg/kg
same,ED50,"dopamine [2]; sc, 1 h before apomorphine 0.31 mg/kg sc, read-out: ED50 (sc)",2.4 µg/kg
same,ED50,"dopamine [2]; sc, 2 h before apomorphine 0.31 mg/kg sc, read-out: ED50 (sc)",1.4 µg/kg
same,ED50,"dopamine [2]; sc, 4 h before apomorphine 0.31 mg/kg sc, read-out: ED50 (sc)",0.89 µg/kg
same,ED50,"dopamine [2]; sc, 8 h before apomorphine 0.31 mg/kg sc, read-out: ED50 (sc)",1.2 µg/kg
same,ED50,"dopamine [2]; sc, 16 h before apomorphine 0.31 mg/kg sc, read-out: ED50 (sc)",2.2 µg/kg
same,ED50,"dopamine [2]; sc, 32 h before apomorphine 0.31 mg/kg sc, read-out: ED50 (sc)",4.5 µg/kg
same,ED50,dopamine [3]; Time 0.5 between compound and apomorphine challenge (1.25 mg/kg iv),0.021 mg/kg
same,ED50,dopamine [3]; Time 1 between compound and apomorphine challenge (1.25 mg/kg iv),0.018 mg/kg
same,ED50,dopamine [3]; Time 2 between compound and apomorphine challenge (1.25 mg/kg iv),0.032 mg/kg
same,ED50,dopamine [3]; Time 4 between compound and apomorphine challenge (1.25 mg/kg iv),0.068 mg/kg
same,ED50,dopamine [3]; Time 8 between compound and apomorphine challenge (1.25 mg/kg iv),0.29 mg/kg
